# Experimental data: patent US20180052105A1, “SULFANE SULFUR-SELECTIVE FLUORESCENT PROBE” (The University of Tokyo, priority 2015, published 2018)
# What was measured:
# [1] = Absorption and fluorescence spectra of the probe after addition of Na2S4 in buffer; settings: 1 μM probe, 0.1 M sodium phosphate buffer pH 7.4, 300 μM GSH
# Experimental: Na2S4 was added to compound 8 synthesized as described above, and the absorption spectrum (UV-1650PC, Shimadzu) and fluorescence spectrum (F-4500, Hitachi) were measured.
# (§1) The excitation wavelength was 470 nm.
# Na2S4 was added to the synthesized compound a1, compound a2, and compound 25, which was obtained by deprotecting compound a4, and the absorption and fluorescence spectra were measured.
# cells = test: Localization in cells, co-staining with Lysotracker or Mitotracker; format: cell-based
# Experimental: The localization in cells was studied using compound a3. […] The cells were incubated for one hour by 10 μM of compound a3 and 50 nM of Lysotracker Deep red or 200 nM of Mitotracker Deep red in DMEM (containing 0.03% Purulonic and 0.1% DMSO as a co-solvent). Ex/Em=488 nm (laser intensity 20%)/500-540 nm (PMT1000) and 650 nm/670-700 nm (PMT600)
# A549 cells = test: Live cell imaging (confocal microscope) with Na2S4 added; format: cell-based
# Experimental: The SSip-1 DA was introduced into A549 cells, and 500 μM of Na2S4 was added outside the cells under a microscope. The A549 cells were incubated for three hours by 10 μM of SSip-1 DA (containing 0.0003% Purulonic and 1% DMSO as a co-solvent). The excitation wavelength was 488 nm, and the emission wavelengths were 500-570 nm and 590-650 nm. […]
# [2] = Reversibility of SSip-1 (in vitro assay in the presence of 5 mM of GSH); settings: 1 μM probe, pH 7.4, 5 mM GSH
# Experimental: Reversibility of SSip-1 (In Vitro Assay in the Presence of 5 mM of GSH)
# The existence of a response to sulfane sulfur was studied in the presence of 5 mM of GSH, which is the GSH concentration in cells (FIG. 4).
# as §1
# [3] = Selectivity with H2S (addition of NaHS); settings: 0.1 μm of SSip-1, pH 7.4, 300 μM GSH, 50 μM NaHS, excitation 470 nm
# Description: as §1
# [4] = A549 cells incubated 3 h with 10 μM SSip-1 DA, 500 μM Na2S4 added, excitation 488 nm
substance,measurement,setting,value
SSip-1,change in absorbance on the rhodamine side,[1]; after 50 μM Na2S4,decrease in absorbance on the rhodamine side
same,rise in fluorescence intensity,"[1]; after 50 μM Na2S4, excitation 470 nm",approximately 10 fold
same,merging with Lysotracker and Mitotracker,cells; cells incubated 1 h with 10 μM compound a3 and 50 nM Lysotracker Deep red or 200 nM Mitotracker Deep red in DMEM,did not merge with Lysotracker and Mitotracker
same,localization in cells,cells; in comparison to the localization when only SSip-1 was loaded,localized in the mitochondria
same,intensity of the fluorescein-derived fluorescence wavelength region (500-570 nm),A549 cells; [4],increased
same,intensity of the rhodamine-derived fluorescence wavelength region (590-650 nm),A549 cells; [4],decreased slightly
same,time for fluorescence to decrease after washout,"A549 cells; A549 live cells, after washout of 250 μM Na2S4",about 20 minutes
same,time for fluorescence to rise after Na2S4 addition,"A549 cells; A549 live cells, repeated addition of 250 μM Na2S4",within one minute
same,fluorescence after addition of Na2S4,"[2]; 50 μM Na2S4, excitation 470 nm",the fluorescence rose after addition of Na2S4
same,reversibility (fluorescence on repeated Na2S4 addition),[2]; Na2S4 added again,showing reversibility
same,rise in fluorescence intensity with H2S donor,[3],virtually no rise in fluorescence intensity
